Results: US20070128217A1 (priority 2003, published 2007)

Assays:
[1] = test system: antibodies in sera from SARS patients (sera 1a, 1b, 2, 6, 37, 62, London, SARS-yellow, SARS-green); format: binding, human; set-up: Binding of serum 6 to linear peptides of protein X1 of SARS-CoV Urbani / Binding of serum 37 to linear peptides of protein X1 of SARS-CoV Urbani / Binding of serum 6 to looped/cyclic peptide (PEPSCAN-ELISA) / Binding of serum 37 to looped/cyclic peptide (PEPSCAN-ELISA) / Binding of serum 37 to looped/cyclic peptides of protein X1 of SARS-CoV Urbani / Binding of serum 6 to linear peptides of protein X2 / Binding of serum 37 to linear peptides of protein X2 / Binding of serum 37 to looped/cyclic peptides of protein X2 of SARS-CoV Urbani / Binding of serum 6 to linear peptides of protein M of SARS-CoV Urbani / Binding of serum 37 to linear peptides of protein M of SARS-CoV Urbani / Binding of serum 6 to looped/cyclic peptides of protein M of SARS-CoV Urbani / Binding of serum 37 to looped/cyclic peptides of protein M of SARS-CoV Urbani / Binding of serum 6 to linear peptides of protein X3 of SARS-CoV Urbani / Binding of serum 37 to linear peptides of protein X3 of SARS-CoV Urbani / Binding of serum 37 to looped/cyclic peptides of protein X3 of SARS-CoV Urbani / Binding of serum 6 to linear peptides of protein X4 of SARS-CoV Urbani / Binding of serum 37 to linear peptides of protein X4 of SARS-CoV Urbani / Binding of serum 37 to looped/cyclic peptides of protein X4 of SARS-CoV Urbani / Binding of serum 6 to linear peptides of protein X5 of SARS-CoV Urbani / Binding of serum 37 to linear peptides of protein X5 of SARS-CoV Urbani / Binding of serum 37 to looped/cyclic peptides of protein X5 of SARS-CoV Urbani / Binding of serum 6 to linear peptides of protein N of SARS-CoV Urbani / Binding of serum 37 to linear peptides of protein N of SARS-CoV Urbani / Binding of serum 6 to linear peptide (PEPSCAN-ELISA) / Binding of serum 1a to looped/cyclic peptides of protein N of SARS-CoV Urbani / Binding of serum 1b to looped/cyclic peptides of protein N of SARS-CoV Urbani / Binding of serum 2 to looped/cyclic peptides of protein N of SARS-CoV Urbani / Binding of serum 6 to looped/cyclic peptides of protein N of SARS-CoV Urbani / Binding of serum 37 to looped/cyclic peptides of protein N of SARS-CoV Urbani / Binding of serum 62 to looped/cyclic peptides of protein N of SARS-CoV Urbani / Binding of serum London to looped/cyclic peptides of protein N of SARS-CoV Urbani / Binding of serum SARS-green to looped/cyclic peptides of protein N of SARS-CoV Urbani: unit not given here
[2] = test system: rabbit serum obtained by immunizing a rabbit with the SARS-CoV strain Frankfurt 1; format: binding; set-up: Binding of a rabbit serum to linear peptides / Binding of a rabbit serum to looped peptides / Rabbit serum linear peptides / Rabbit serum looped peptides / Binding of a rabbit serum to linear peptides of protein N of SARS-CoV Urbani (Rabbit serum linear peptides) / Binding of a rabbit serum to looped/cyclic peptides of protein N of SARS-CoV Urbani (Rabbit serum looped peptides): unit not given here
[3] = test system: control sera (pooled serum of ten healthy LUMC hospital workers; commercial negative donor pooled serum from the Dutch bloodbank); format: binding, human; set-up: Binding of Control serum LUMC to linear peptides / Binding of Control serum Blood-bank to linear peptides / Binding of Control serum LUMC to looped peptides / Binding of Control Serum Blood-Bank to Looped peptides / Binding of Control serum LUMC to linear peptides of the protein M of SARS-CoV Urbani / Binding of Control serum Blood-bank to linear peptides of the protein M of SARS-CoV Urbani / Binding of Control serum LUMC to looped peptides of the protein M of SARS-CoV Urbani / Binding of Control Serum Blood-Bank to Looped peptides of the protein M of SARS-CoV Urbani: unit not given here

DPPNVQIHTIDGSSG
Binding of serum 1a to linear peptides of protein X1 of SARS-CoV Urbani [1]: 0.5
Binding of serum 1a to looped/cyclic peptides of protein X1 of SARS-CoV Urbani [1]: 0.4
Binding of serum 1b to linear peptides of protein X1 of SARS-CoV Urbani [1]: 0.4
Binding of serum 1b to looped/cyclic peptides of protein X1 of SARS-CoV Urbani [1]: 0.2
Binding of serum 2 to linear peptides of protein X1 of SARS-CoV Urbani [1]: 0.3
Binding of serum 2 to looped/cyclic peptides of protein X1 of SARS-CoV Urbani [1]: 0.2
Binding of serum 6 to linear peptides of protein X1 of SARS-CoV Urbani [1]: 0.3
Binding of serum 6 to looped/cyclic peptides of protein X1 of SARS-CoV Urbani [1]: 0.2
Binding of serum 37 to linear peptides of protein X1 of SARS-CoV Urbani [1]: 0.5
Binding of serum 37 to looped/cyclic peptides of protein X1 of SARS-CoV Urbani [1]: 0.3
Binding of serum 62 to linear peptides of protein X1 of SARS-CoV Urbani [1]: 0.4
Binding of serum 62 to looped/cyclic peptides of protein X1 of SARS-CoV Urbani [1]: 0.3
Binding of serum London to linear peptides of protein X1 of SARS-CoV Urbani [1]: 0.2
Binding of serum London to looped/cyclic peptides of protein X1 of SARS-CoV Urbani [1]: 0.2
Binding of serum SARS-green to linear peptides of protein X1 of SARS-CoV Urbani [1]: 0.2
Binding of serum SARS-green to looped/cyclic peptides of protein X1 of SARS-CoV Urbani [1]: 0.2
Binding of serum SARS-yellow to linear peptides of protein X1 of SARS-CoV Urbani [1]: 0.2
Binding of serum SARS-yellow to looped/cyclic peptides of protein X1 of SARS-CoV Urbani [1]: 0.2
Binding of a rabbit serum to linear peptides [2]: 0.1
Binding of a rabbit serum to looped peptides [2]: 0.4
Binding of Control Serum Blood-Bank to Looped peptides [3]: 0.4
Binding of Control serum Blood-bank to linear peptides [3]: 0.3
Binding of Control serum LUMC to linear peptides [3]: 0.3
Binding of Control serum LUMC to looped peptides [3]: 0.5

DSGFAAYNRYRIGNY
Binding of serum 1a to linear peptides of protein M of SARS-CoV Urbani [1]: 0.6
Binding of serum 1a to looped/cyclic peptides of protein M of SARS-CoV Urbani [1]: 0.8
Binding of serum 1b to linear peptides of protein M of SARS-CoV Urbani [1]: 0.4
Binding of serum 1b to looped/cyclic peptides of protein M of SARS-CoV Urbani [1]: 0.6
Binding of serum 2 to linear peptides of protein M of SARS-CoV Urbani [1]: 0.4
Binding of serum 2 to looped/cyclic peptides of protein M of SARS-CoV Urbani [1]: 0.6
Binding of serum 6 to linear peptides of protein M of SARS-CoV Urbani [1]: 0.5
Binding of serum 6 to looped/cyclic peptides of protein M of SARS-CoV Urbani [1]: 0.6
Binding of serum 37 to linear peptides of protein M of SARS-CoV Urbani [1]: 0.4
Binding of serum 37 to looped/cyclic peptides of protein M of SARS-CoV Urbani [1]: 0.7
Binding of serum 62 to linear peptides of protein M of SARS-CoV Urbani [1]: 0.4
Binding of serum 62 to looped/cyclic peptides of protein M of SARS-CoV Urbani [1]: 0.6
Binding of serum London to linear peptides of protein M of SARS-CoV Urbani [1]: 0.3
Binding of serum London to looped/cyclic peptides of protein M of SARS-CoV Urbani [1]: 0.2
Binding of serum SARS-green to linear peptides of protein M of SARS-CoV Urbani [1]: 0.3
Binding of serum SARS-green to looped/cyclic peptides of protein M of SARS-CoV Urbani [1]: 0.4
Binding of serum SARS-yellow to linear peptides of protein M of SARS-CoV Urbani [1]: 0.1
Binding of serum SARS-yellow to looped/cyclic peptides of protein M of SARS-CoV Urbani [1]: 0.8
Rabbit serum linear peptides [2]: 0.2
Rabbit serum looped peptides [2]: 0.3
Binding of Control Serum Blood-Bank to Looped peptides of the protein M of SARS-CoV Urbani [3]: 0.5
Binding of Control serum Blood-bank to linear peptides of the protein M of SARS-CoV Urbani [3]: 0.5
Binding of Control serum LUMC to linear peptides of the protein M of SARS-CoV Urbani [3]: 0.5
Binding of Control serum LUMC to looped peptides of the protein M of SARS-CoV Urbani [3]: 0.5

DTGIENATFFIFNKL
Binding of serum 1a to linear peptides of protein X1 of SARS-CoV Urbani [1]: 0.7
Binding of serum 1a to looped/cyclic peptides of protein X1 of SARS-CoV Urbani [1]: 0.6
Binding of serum 1b to linear peptides of protein X1 of SARS-CoV Urbani [1]: 0.5
Binding of serum 1b to looped/cyclic peptides of protein X1 of SARS-CoV Urbani [1]: 0.5
Binding of serum 2 to linear peptides of protein X1 of SARS-CoV Urbani [1]: 0.5
Binding of serum 2 to looped/cyclic peptides of protein X1 of SARS-CoV Urbani [1]: 0.6
Binding of serum 6 to linear peptides of protein X1 of SARS-CoV Urbani [1]: 0.4
Binding of serum 6 to looped/cyclic peptides of protein X1 of SARS-CoV Urbani [1]: 0.2
Binding of serum 37 to linear peptides of protein X1 of SARS-CoV Urbani [1]: 0.7
Binding of serum 37 to looped/cyclic peptides of protein X1 of SARS-CoV Urbani [1]: 0.7
Binding of serum 62 to linear peptides of protein X1 of SARS-CoV Urbani [1]: 0.6
Binding of serum 62 to looped/cyclic peptides of protein X1 of SARS-CoV Urbani [1]: 0.6
Binding of serum London to linear peptides of protein X1 of SARS-CoV Urbani [1]: 0.4
Binding of serum London to looped/cyclic peptides of protein X1 of SARS-CoV Urbani [1]: 0.2
Binding of serum SARS-green to linear peptides of protein X1 of SARS-CoV Urbani [1]: 0.3
Binding of serum SARS-green to looped/cyclic peptides of protein X1 of SARS-CoV Urbani [1]: 0.4
Binding of serum SARS-yellow to linear peptides of protein X1 of SARS-CoV Urbani [1]: 0.4
Binding of serum SARS-yellow to looped/cyclic peptides of protein X1 of SARS-CoV Urbani [1]: 0.6
Binding of a rabbit serum to linear peptides [2]: 0.1
Binding of a rabbit serum to looped peptides [2]: 0.6
Binding of Control Serum Blood-Bank to Looped peptides [3]: 0.7
Binding of Control serum Blood-bank to linear peptides [3]: 0.6
Binding of Control serum LUMC to linear peptides [3]: 0.5
Binding of Control serum LUMC to looped peptides [3]: 0.9

DVIISSIVRQLFKPL
Binding of serum 1a to linear peptides of protein X3 of SARS-CoV Urbani [1]: 0.7
Binding of serum 1a to looped/cyclic peptides of protein X3 of SARS-CoV Urbani [1]: 0.6
Binding of serum 1b to linear peptides of protein X3 of SARS-CoV Urbani [1]: 0.4
Binding of serum 1b to looped/cyclic peptides of protein X3 of SARS-CoV Urbani [1]: 0.2
Binding of serum 2 to linear peptides of protein X3 of SARS-CoV Urbani [1]: 0.5
Binding of serum 2 to looped/cyclic peptides of protein X3 of SARS-CoV Urbani [1]: 0.5
Binding of serum 6 to linear peptides of protein X3 of SARS-CoV Urbani [1]: 0.3
Binding of serum 6 to looped/cyclic peptides of protein X3 of SARS-CoV Urbani [1]: 0.6
Binding of serum 37 to linear peptides of protein X3 of SARS-CoV Urbani [1]: 0.6
Binding of serum 37 to looped/cyclic peptides of protein X3 of SARS-CoV Urbani [1]: 0.5
Binding of serum 62 to linear peptides of protein X3 of SARS-CoV Urbani [1]: 0.6
Binding of serum 62 to looped/cyclic peptides of protein X3 of SARS-CoV Urbani [1]: 0.4
Binding of serum London to linear peptides of protein X3 of SARS-CoV Urbani [1]: 0.6
Binding of serum London to looped/cyclic peptides of protein X3 of SARS-CoV Urbani [1]: 0.6
Binding of serum SARS-green to linear peptides of protein X3 of SARS-CoV Urbani [1]: 0.3
Binding of serum SARS-green to looped/cyclic peptides of protein X3 of SARS-CoV Urbani [1]: 0.4
Binding of serum SARS-yellow to linear peptides of protein X3 of SARS-CoV Urbani [1]: 0.2
Binding of serum SARS-yellow to looped/cyclic peptides of protein X3 of SARS-CoV Urbani [1]: 0.5
Rabbit serum linear peptides [2]: 0.5
Rabbit serum looped peptides [2]: 0.2
Binding of Control Serum Blood-Bank to Looped peptides of the protein X3 of SARS-CoV Urbani [3]: 0.5
Binding of Control serum Blood-bank to linear peptides of the protein X3 of SARS-CoV Urbani [3]: 0.6
Binding of Control serum LUMC to linear peptides of the protein X3 of SARS-CoV Urbani [3]: 0.4
Binding of Control serum LUMC to looped peptides of the protein X3 of SARS-CoV Urbani [3]: 0.5
